A word on the IC50: it is the concentration at which inhibition is half-maximal.

33 molecules from ChEMBL document CHEMBL3875174, “Further investigation of Paprotrain: Towards the conception of selective and multi-targeted CNS kinase inhibitors” (Eur J Med Chem, 2016) can be followed below.

Data set [1] in a line: Inhibition of porcine brain CK1 delta/epsilon using RRKHAAIGpSAYSITA as substrate incubated for 30 mins in presence of [gamma-33 P] ATP by liquid scintillation counting analysis. Further details: species or system Sus scrofa.
In data set [2] the target is Cyclin-dependent kinase 5/CDK5 activator 1 (Homo sapiens, UniProt Q00535). In kind it is protein-complex assay.
Data set [3] addresses Glycogen synthase kinase-3 (Sus scrofa, UniProt B2LUN4+I6LNT8). Nature of the data set: Inhibition of porcine brain GSK3alpha/beta using GS-1 as substrate incubated for 30 mins in presence of [gamma-33 P] ATP by liquid scintillation counting analysis.
The target in data set [4] is Dual specificity tyrosine-phosphorylation-regulated kinase 1A (Homo sapiens, UniProt Q13627). The data set is described as follows: Inhibition of GST-tagged human recombinant DYRK1A expressed in Escherichia coli using RS peptide as substrate incubated for 30 mins in presence of [gamma-33 P] ATP by liquid scintillation counting analysis.
The target in data set [5] is Dual specificity protein kinase CLK1 (Homo sapiens, UniProt P49759). Nature of the data set: Inhibition of GST-tagged human recombinant CLK1 expressed in Escherichia coli using RS peptide as substrate incubated for 30 mins in presence of [gamma-33 P] ATP by liquid scintillation counting analysis.
A short description of data set [6]: Cytotoxicity against human KB cells assessed as growth inhibition at 1 uM after 72 hrs by MTS assay. The class given is toxicity, cell-based. The conditions noted are these: for inhibition at 72 h, 1 µM: KB cells, read-out: GI; for growth inhibition (GI): kb, 72 h, 1 µM.
Data set [7] addresses Dual specificity tyrosine-phosphorylation-regulated kinase 1B (Homo sapiens, UniProt Q9Y463). Nature of the data set: Inhibition of GST-tagged human recombinant DYRK1B expressed in Escherichia coli using RS peptide as substrate incubated for 30 mins in presence of [gamma-33 P] ATP by liquid scintillation counting analysis.
The target of data set [8] is Dual specificity protein kinase CLK2 (Homo sapiens, UniProt P49760). Nature of the data set: Inhibition of GST-tagged human recombinant CLK2 expressed in Escherichia coli using RS peptide as substrate incubated for 30 mins in presence of [gamma-33 P] ATP by liquid scintillation counting analysis.
The target in data set [9] is Dual specificity protein kinase CLK3 (Homo sapiens, UniProt P49761). The data set is described as follows: Inhibition of GST-tagged human recombinant CLK3 expressed in Escherichia coli using RS peptide as substrate incubated for 30 mins in presence of [gamma-33 P] ATP by liquid scintillation counting analysis.
Data set [10] deals with Dual specificity protein kinase CLK4 (Homo sapiens, UniProt Q9HAZ1). Nature of the data set: Inhibition of GST-tagged human recombinant CLK4 expressed in Escherichia coli using RS peptide as substrate incubated for 30 mins in presence of [gamma-33 P] ATP by liquid scintillation counting analysis.
Dual specificity protein kinase CLK4, sequence (Q9HAZ1 whole entry): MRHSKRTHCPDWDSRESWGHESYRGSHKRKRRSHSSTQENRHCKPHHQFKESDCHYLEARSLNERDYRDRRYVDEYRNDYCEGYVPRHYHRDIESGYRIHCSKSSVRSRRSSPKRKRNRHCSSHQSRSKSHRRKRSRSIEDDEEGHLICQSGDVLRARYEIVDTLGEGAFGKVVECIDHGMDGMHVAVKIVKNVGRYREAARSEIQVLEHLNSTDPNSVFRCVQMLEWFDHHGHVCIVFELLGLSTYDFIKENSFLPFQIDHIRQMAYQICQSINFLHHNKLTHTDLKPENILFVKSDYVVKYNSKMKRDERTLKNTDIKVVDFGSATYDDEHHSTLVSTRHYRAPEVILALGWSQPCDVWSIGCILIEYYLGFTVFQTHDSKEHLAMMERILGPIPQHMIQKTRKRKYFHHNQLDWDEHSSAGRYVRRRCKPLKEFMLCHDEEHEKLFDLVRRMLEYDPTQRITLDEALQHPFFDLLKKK

Dual specificity protein kinase CLK3, sequence (P49761 whole entry): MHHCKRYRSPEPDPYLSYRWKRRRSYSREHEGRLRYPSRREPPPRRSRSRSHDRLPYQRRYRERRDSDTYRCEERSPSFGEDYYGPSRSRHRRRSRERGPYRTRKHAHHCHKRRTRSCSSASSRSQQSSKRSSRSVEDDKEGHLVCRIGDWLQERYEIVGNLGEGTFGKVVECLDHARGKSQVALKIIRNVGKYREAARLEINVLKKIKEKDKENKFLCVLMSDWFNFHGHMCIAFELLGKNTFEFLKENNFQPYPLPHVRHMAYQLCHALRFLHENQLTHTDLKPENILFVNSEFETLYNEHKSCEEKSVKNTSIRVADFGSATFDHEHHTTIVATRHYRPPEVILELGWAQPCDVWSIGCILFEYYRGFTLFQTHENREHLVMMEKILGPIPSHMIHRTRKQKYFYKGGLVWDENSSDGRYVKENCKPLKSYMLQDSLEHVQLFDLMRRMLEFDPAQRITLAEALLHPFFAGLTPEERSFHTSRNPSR
Dual specificity tyrosine-phosphorylation-regulated kinase 1B, sequence (Q9Y463 whole entry): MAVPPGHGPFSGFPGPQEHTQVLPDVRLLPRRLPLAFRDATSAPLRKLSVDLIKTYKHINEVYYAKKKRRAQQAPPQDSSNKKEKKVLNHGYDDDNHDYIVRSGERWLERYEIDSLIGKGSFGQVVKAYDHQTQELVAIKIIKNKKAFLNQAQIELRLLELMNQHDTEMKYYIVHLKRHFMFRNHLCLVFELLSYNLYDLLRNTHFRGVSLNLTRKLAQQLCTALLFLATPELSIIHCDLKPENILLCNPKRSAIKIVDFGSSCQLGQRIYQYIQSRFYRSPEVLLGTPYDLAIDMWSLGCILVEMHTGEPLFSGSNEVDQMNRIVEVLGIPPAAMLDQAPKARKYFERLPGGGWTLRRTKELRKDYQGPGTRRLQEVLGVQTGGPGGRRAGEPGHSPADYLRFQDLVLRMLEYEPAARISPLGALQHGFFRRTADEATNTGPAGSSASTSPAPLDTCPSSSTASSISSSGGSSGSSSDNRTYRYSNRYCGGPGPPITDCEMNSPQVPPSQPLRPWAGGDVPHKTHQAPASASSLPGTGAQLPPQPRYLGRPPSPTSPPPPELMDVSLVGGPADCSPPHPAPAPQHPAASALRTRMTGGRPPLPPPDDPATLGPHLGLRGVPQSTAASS
Dual specificity protein kinase CLK1, sequence (P49759 whole entry): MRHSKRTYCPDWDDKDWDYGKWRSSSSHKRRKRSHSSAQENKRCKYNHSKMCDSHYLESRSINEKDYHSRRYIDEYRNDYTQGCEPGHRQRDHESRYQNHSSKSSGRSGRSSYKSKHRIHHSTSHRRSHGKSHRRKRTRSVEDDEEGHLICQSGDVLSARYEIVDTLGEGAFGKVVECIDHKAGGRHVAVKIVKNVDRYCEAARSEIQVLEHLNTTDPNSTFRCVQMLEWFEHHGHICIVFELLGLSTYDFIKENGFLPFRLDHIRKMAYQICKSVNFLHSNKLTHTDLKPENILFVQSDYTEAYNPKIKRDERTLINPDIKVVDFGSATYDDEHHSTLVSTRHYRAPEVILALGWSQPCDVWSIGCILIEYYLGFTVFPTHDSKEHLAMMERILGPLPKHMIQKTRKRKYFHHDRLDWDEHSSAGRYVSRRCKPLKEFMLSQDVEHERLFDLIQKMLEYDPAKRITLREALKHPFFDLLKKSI
Cyclin-dependent kinase 5/CDK5 activator 1, sequence (Q00535 whole entry): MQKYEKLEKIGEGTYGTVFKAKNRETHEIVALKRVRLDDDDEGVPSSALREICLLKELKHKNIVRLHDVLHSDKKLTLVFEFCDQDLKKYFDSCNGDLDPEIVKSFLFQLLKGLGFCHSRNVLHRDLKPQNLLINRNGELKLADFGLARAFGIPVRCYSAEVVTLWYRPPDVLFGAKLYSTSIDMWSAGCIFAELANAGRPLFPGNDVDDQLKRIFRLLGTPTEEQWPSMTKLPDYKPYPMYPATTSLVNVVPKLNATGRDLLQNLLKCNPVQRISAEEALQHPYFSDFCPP
Cyclin-dependent kinase 5/CDK5 activator 1, sequence (Q15078 whole entry, further chain): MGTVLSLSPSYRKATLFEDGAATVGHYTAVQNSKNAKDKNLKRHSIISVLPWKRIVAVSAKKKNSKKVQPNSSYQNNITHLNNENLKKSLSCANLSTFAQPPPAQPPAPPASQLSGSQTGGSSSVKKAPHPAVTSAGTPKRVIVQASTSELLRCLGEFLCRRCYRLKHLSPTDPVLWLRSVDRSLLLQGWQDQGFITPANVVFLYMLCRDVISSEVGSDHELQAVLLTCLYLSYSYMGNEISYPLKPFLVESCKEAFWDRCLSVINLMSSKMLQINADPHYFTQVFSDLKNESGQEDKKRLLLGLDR
Dual specificity protein kinase CLK2, sequence (P49760 whole entry): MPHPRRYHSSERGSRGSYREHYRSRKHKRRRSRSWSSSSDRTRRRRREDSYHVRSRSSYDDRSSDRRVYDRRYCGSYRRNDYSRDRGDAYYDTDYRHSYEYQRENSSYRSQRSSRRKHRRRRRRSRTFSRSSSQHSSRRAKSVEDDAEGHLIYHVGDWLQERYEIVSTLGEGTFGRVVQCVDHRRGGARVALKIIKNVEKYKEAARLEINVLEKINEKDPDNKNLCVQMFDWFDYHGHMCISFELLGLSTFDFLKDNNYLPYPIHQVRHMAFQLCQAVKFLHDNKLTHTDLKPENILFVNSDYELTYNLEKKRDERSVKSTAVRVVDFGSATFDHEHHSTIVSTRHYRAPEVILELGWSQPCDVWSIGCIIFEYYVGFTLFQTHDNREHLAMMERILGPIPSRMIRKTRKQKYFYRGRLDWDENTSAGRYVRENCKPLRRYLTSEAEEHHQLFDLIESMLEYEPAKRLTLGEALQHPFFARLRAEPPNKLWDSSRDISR

As for `COc1cccc2c(/C(C#N)=C/c3cccnc3)c[nH]c12`, the IC50 is more than 10 µM in data set [1]; more than 10 µM in data set [2]; more than 10 µM in data set [3]; 1.2 µM in [4]; 1.5 µM in data set [5].

As to `COc1cccc2[nH]cc(/C(C#N)=C/c3cccnc3)c12`, the IC50 is more than 10 µM in data set [1]; more than 10 µM in data set [2]; more than 10 µM in [3]; 6 µM in data set [4]; 3 µM in data set [5].

In the case of `N#C/C(=C\c1cccnc1)c1c[nH]c2ccccc12`, the figures for the IC50 in data set [2], in data set [3] and in data set [4] were more than 10 µM, more than 10 µM and 5.5 µM, respectively.

As for `COc1ccc2c(/C(C#N)=C/c3cccnc3)c[nH]c2c1`, the IC50 in data set [1] was more than 10 µM; in data set [2], more than 10 µM; in [3], more than 10 µM; in data set [4] it was 1.6 µM; in data set [5], 1.3 µM.

In the case of `COc1ccc2[nH]cc(/C(C#N)=C/c3cccnc3)c2c1`, the figures for the IC50 in data set [2], in [3] and in [4] were more than 10 µM, more than 10 µM and 6.3 µM, respectively.

As for `N#C/C(=C/c1cccnc1)c1c[nH]c2ccccc12`, the IC50 in [2], in data set [3], in [4] and in [5] was more than 10 µM throughout.

With `N#Cc1cc2cnccc2c2[nH]c3ccc(Cl)cc3c12`, the IC50 in data set [1] is more than 10 µM; in [2] it was more than 10 µM; in [3] it was more than 10 µM; in data set [4] it was 4 µM; in data set [5], more than 10 µM.

For `N#Cc1cc2ccccc2c2[nH]c3ccccc3c12`, the IC50 in [1] was more than 10 µM; in [2], more than 10 µM; in [3], more than 10 µM; in data set [4], 2.3 µM; in data set [5], 1.4 µM.

As for `N#Cc1cc2ncccc2c2[nH]c3ccccc3c12`, the IC50 in data set [1] was more than 10 µM; in data set [2] it was more than 10 µM; in [3], more than 10 µM; in data set [4], 10 µM; in [5], more than 10 µM.

As for `N#Cc1cc2cnccc2c2[nH]c3ccccc3c12`, the half-inhibitory concentration (IC50) in data set [2] came to 0.8 µM; in data set [3], 1 µM; in data set [4] it was 0.05 µM.

`COc1ccc2cc(-c3ccncc3)[nH]c2n1`: the IC50 in data set [1] was more than 10 µM; in data set [2], more than 10 µM; in data set [3], more than 10 µM; in data set [4], more than 10 µM; in data set [5], 2.9 µM.

On to `COc1cncc(/C=C(\C#N)c2c[nH]c3ccc(OC)cc23)c1`, for which the IC50 in data set [1] is more than 10 µM; in [2] it was more than 10 µM; in [3], more than 10 µM; in [4], more than 10 µM; in [5] it was 2.3 µM.

In the case of `N#C/C(=C\c1ccccc1)c1c[nH]c2ccccc12`, the IC50 in data set [2], in data set [3] and in [4] was more than 10 µM throughout.

As to `COc1ccc2c(CC#N)c(-c3ccncc3)[nH]c2n1`, the IC50 in data set [1] is more than 10 µM; in [2], more than 10 µM; in data set [3] it was more than 10 µM; in data set [4], 7.3 µM; in data set [5], 1.1 µM.

For `N#C/C(=C\c1cccnc1)c1c[nH]c2ccc(F)cc12`, the IC50 was more than 10 µM in [1]; more than 10 µM in data set [2]; more than 10 µM in data set [3]; 1.8 µM in data set [4]; 1.7 µM in data set [5].

On to `Nc1nc2ccccc2c2cc3cnccc3cc12`, for which the IC50 in [1] is more than 10 µM; in [2], more than 10 µM; in data set [3] it was more than 10 µM; in [4] it was more than 10 µM; in data set [5], 2.1 µM.

For the molecule `N#C/C(=C\c1ccccn1)c1c[nH]c2ccccc12`, the IC50 in data set [2], in data set [3] and in data set [4] was more than 10 µM in each case.

With `COc1ccc2c(c1)[nH]c1c3c(OC)cncc3cc(C(N)=O)c21`, the half-maximal inhibitory concentration (IC50) in [1] was more than 10 µM; in data set [2], 1.6 µM; in [3] it was more than 10 µM; in data set [4], 3.3 µM; in [5], 1.6 µM.

Regarding `COc1ccc2[nH]cc(/C(C#N)=C(\N)c3cccnc3)c2c1`, the half-inhibitory concentration (IC50) in [1], in [2], in data set [3], in [4] and in [5] was more than 10 µM throughout.

For the molecule `COc1ccc2c(c1)[nH]c1c3ccncc3cc(CN(C)C)c21`, the IC50 in data set [1] was more than 10 µM; in data set [2], 5.4 µM; in [3], more than 10 µM; in data set [4], 0.67 µM; in [5], 1.4 µM. Also, the inhibition at 72 h, 1 µM in data set [6] amounted to 37%.

As to `COc1ccc2c(c1)[nH]c1c3ccncc3cc(C(N)=O)c21`, the IC50 in data set [1] was more than 10 µM; in data set [2] it was 4.5 µM; in data set [3], 9 µM; in data set [4], 2 µM; in data set [5], 1.6 µM.

With `COc1ccc2[nH]c3c4c(OC)cncc4cc(C#N)c3c2c1`, the IC50 in data set [1] was more than 10 µM; in data set [2] it was 0.93 µM; in data set [3], 4 µM; in data set [4], 0.6 µM; in [5], 0.056 µM. In data set [6], the “growth inhibition (GI)” value is listed as “Non-Toxic”.

For `COc1ccc2[nH]cc3c2c1C(C)NC(c1cccnc1)=C3C#N` (centres undefined), the 50% inhibitory concentration (IC50) was more than 10 µM in [1]; 6.4 µM in data set [2]; more than 10 µM in [3]; 5 µM in data set [4]; more than 10 µM in [5].

With `COc1ccc2[nH]c3c(=O)[nH]c(-c4cccnc4)c(C#N)c3c2c1`, the IC50 was more than 10 µM in [1]; more than 10 µM in [2]; more than 10 µM in data set [3]; 4.3 µM in [4]; 0.047 µM in data set [5]; 1.1 µM in data set [7]. Moreover, the IC50 was 0.61 µM in [8], more than 10 µM in data set [9] and 0.021 µM in data set [10]. The “growth inhibition (GI)” value in data set [6] was “Non-Toxic”.

As for `N#C/C(=C\c1cccnc1)c1c[nH]c2ccc(Cl)cc12`, the half-inhibitory concentration (IC50) in data set [1] is more than 10 µM; in [2], more than 10 µM; in data set [3] it was more than 10 µM; in data set [4], 3.3 µM; in data set [5], 2 µM.

Regarding `N#C/C(=C\c1ccncc1)c1c[nH]c2ccccc12`, the IC50 in data set [2], in data set [3] and in data set [4] was more than 10 µM in each case.

As for `N#Cc1cc2cccnc2c2[nH]c3ccccc3c12`, the IC50 in [2], in [3] and in [4] was more than 10 µM each time.

For the molecule `COc1ccc2c(c1)[nH]c1c3ccncc3cc(CN)c21`, the IC50 is more than 10 µM in data set [1]; 5.6 µM in data set [2]; more than 10 µM in [3]; 0.87 µM in [4]; 0.83 µM in data set [5]; 0.91 µM in [7]. Also, the half-maximal inhibitory concentration (IC50) in data set [8] is 1.6 µM; in [9], 7 µM; in data set [10] it was 0.27 µM. Also, the inhibition at 72 h, 1 µM in [6] worked out at 85%.

`COc1ccc2[nH]cc(/C(C#N)=C/c3cnccc3C)c2c1`: the IC50 is more than 10 µM in data set [1]; more than 10 µM in data set [2]; more than 10 µM in data set [3]; 5.5 µM in [4]; 4 µM in data set [5].

Turning to `COc1ccc2[nH]cc(-c3cc4cnccc4cc3NC(C)=O)c2c1`, the concentration for half-maximal inhibition (IC50) in [1] was more than 10 µM; in data set [2] it was 8 µM; in [3], more than 10 µM; in data set [4], 0.85 µM; in data set [5], 0.034 µM; in data set [7] it was 0.59 µM. The IC50 turned out to be 1.1 µM in data set [8], 7 µM in data set [9] and 0.022 µM in [10]. For the same molecule, the “growth inhibition (GI)” value in [6] is given as “Non-Toxic”.

In the case of `COc1ccc2c(c1)[nH]c1c3ccncc3cc(CNC(C)=O)c21`, the IC50 in data set [1] is more than 10 µM; in data set [2], 6 µM; in data set [3], more than 10 µM; in [4] it was 0.97 µM; in data set [5], 2.4 µM; in data set [7] it was 0.9 µM. The IC50 in data set [8] turned out to be 2.8 µM; in [9], 8 µM; in [10], 0.69 µM. Besides, in data set [6], the inhibition at 72 h, 1 µM was found to be 16%.

With `N#Cc1cc2ccccn2c2nc3ccccc3c1-2`, the IC50 in data set [1], in data set [2], in [3], in [4] and in data set [5] was more than 10 µM in each case.

With `COc1ccc2c(c1)[nH]c1c(C)nccc12` [HARMINE], the IC50 in data set [1] is 1.5 µM; in data set [3], more than 10 µM.
